The record followed here is the NIST ThermoML archive (doi:10.1021/je1005517).

Each structure is given as a SMILES string. Numbers after ± are expanded uncertainties.

A short description of this data set: activity coefficient (dimensionless); of the first substance listed, at infinite dilution; xn = mol fraction of the nth substance listed. The conditions noted are these: Liquid, GC, x1 = 0.

For the compound `ClC(Cl)Cl` [trichloromethane] + CCCCCCCCCCCCCCCCCCCCO, the activity coefficient worked out at 0.0632 ± 0.0038 (338.15 K, 101 kPa); 0.0622 ± 0.0037 (343.15 K, 101 kPa); 0.0612 ± 0.0037 (348.15 K, 101 kPa); 0.0604 ± 0.0036 (353.15 K, 101 kPa).
Take `ClC(Cl)(Cl)Cl` [tetrachloromethane] + CCCCCCCCCCCCCCCCCCCCO: the activity coefficient (338.15 K, 101 kPa) is 0.0862 ± 0.0052; the activity coefficient (343.15 K, 101 kPa) was determined as 0.081 ± 0.0049; the activity coefficient (348.15 K, 101 kPa) came to 0.076 ± 0.0046; the activity coefficient (353.15 K, 101 kPa) came out at 0.0714 ± 0.0043.
Consider `ClC(Cl)(Cl)Cl` [tetrachloromethane] + CCCCCCCCCCCCCCCCCCO, for which the activity coefficient is, setting by setting: (333.15 K, 101 kPa) 0.0288 ± 0.0017; (338.15 K, 101 kPa) 0.0285 ± 0.0017; (343.15 K, 101 kPa) 0.0283 ± 0.0017; (348.15 K, 101 kPa) 0.028 ± 0.0017; (353.15 K, 101 kPa) 0.0278 ± 0.0017.
Taken in the same sequence, the figures for `Cc1ccccc1` [toluene] + CCCCCCCCCCCCCCCCCCO were 0.0372 ± 0.0022, 0.0355 ± 0.0021, 0.0343 ± 0.0021, 0.0331 ± 0.002 and 0.0318 ± 0.0019.
Turning to `CCCCCCCC` [octane] + CCCCCCCCCCCCCCCCCCCCO, the activity coefficient (338.15 K, 101 kPa) came out at 0.187 ± 0.011; the activity coefficient (343.15 K, 101 kPa) is 0.161 ± 0.0096; the activity coefficient (348.15 K, 101 kPa) came out at 0.138 ± 0.0083; the activity coefficient (353.15 K, 101 kPa) amounted to 0.12 ± 0.0072.
Consider `ClCCl` [dichloromethane] + CCCCCCCCCCCCCCCCCCO, for which the activity coefficient is, setting by setting: (333.15 K, 101.3 kPa) 0.0262 ± 0.0016; (338.15 K, 101.3 kPa) 0.0233 ± 0.0014; (343.15 K, 101.3 kPa) 0.0212 ± 0.0013; (348.15 K, 101.3 kPa) 0.0194 ± 0.0012; (353.15 K, 101.3 kPa) 0.0178 ± 0.0011.
On to `C1CCCCC1` [cyclohexane] + CCCCCCCCCCCCCCCCCCO, for which the activity coefficient by setting is: (333.15 K, 101 kPa) 0.0365 ± 0.0022; (338.15 K, 101 kPa) 0.0337 ± 0.002; (343.15 K, 101 kPa) 0.0315 ± 0.0019; (348.15 K, 101 kPa) 0.0294 ± 0.0018; (353.15 K, 101 kPa) 0.0274 ± 0.0016.
Consider `C=CCCC` [1-pentene] + CCCCCCCCCCCCCCCCCCCCO, for which the activity coefficient (338.15 K, 101 kPa) amounted to 0.0813 ± 0.0049; the activity coefficient (343.15 K, 101 kPa) turned out to be 0.0742 ± 0.0045; the activity coefficient (348.15 K, 101 kPa) stood at 0.0664 ± 0.004; the activity coefficient (353.15 K, 101 kPa) was determined as 0.06 ± 0.0036.
As for `CCCCO` [butan-1-ol] + CCCCCCCCCCCCCCCCCCCCO, the activity coefficient runs as follows: (338.15 K, 101 kPa) 0.431 ± 0.026; (343.15 K, 101 kPa) 0.387 ± 0.023; (348.15 K, 101 kPa) 0.352 ± 0.021; (353.15 K, 101 kPa) 0.316 ± 0.019.
With `CCCCCCCC` [octane] + CCCCCCCCCCCCCCCCCCO, the activity coefficient reads like this: (333.15 K, 101 kPa) 0.0513 ± 0.0031; (338.15 K, 101 kPa) 0.0497 ± 0.003; (343.15 K, 101 kPa) 0.0485 ± 0.0029; (348.15 K, 101 kPa) 0.0473 ± 0.0028; (353.15 K, 101 kPa) 0.0461 ± 0.0028.
On to `CCCCCC` [hexane] + CCCCCCCCCCCCCCCCCCCCO, for which the activity coefficient was 0.129 ± 0.0077 (338.15 K, 101 kPa); 0.124 ± 0.0074 (343.15 K, 101 kPa); 0.119 ± 0.0072 (348.15 K, 101 kPa); 0.115 ± 0.0069 (353.15 K, 101 kPa).
In the case of `CCCCO` [butan-1-ol] + CCCCCCCCCCCCCCCCCCO, the activity coefficient reads like this: (333.15 K, 101.3 kPa) 0.154 ± 0.0092; (338.15 K, 101.3 kPa) 0.136 ± 0.008; (343.15 K, 101.3 kPa) 0.121 ± 0.0073; (348.15 K, 101.3 kPa) 0.11 ± 0.0066; (353.15 K, 101.3 kPa) 0.0992 ± 0.006.
As for `ClCCl` [dichloromethane] + CCCCCCCCCCCCCCCCCCCCO, the activity coefficient runs as follows: (338.15 K, 101 kPa) 0.079 ± 0.0047; (343.15 K, 101 kPa) 0.0642 ± 0.0039; (348.15 K, 101 kPa) 0.0532 ± 0.0032; (353.15 K, 101 kPa) 0.0435 ± 0.0026.
Turning to `CCCCl` [1-chloropropane] + CCCCCCCCCCCCCCCCCCO, the activity coefficient by setting is: (333.15 K, 101.3 kPa) 0.0331 ± 0.002; (338.15 K, 101.3 kPa) 0.0294 ± 0.0018; (343.15 K, 101.3 kPa) 0.0269 ± 0.0016; (348.15 K, 101.3 kPa) 0.0245 ± 0.0015; (353.15 K, 101.3 kPa) 0.0225 ± 0.0014.
Take `C1CCOC1` [tetrahydrofuran] + CCCCCCCCCCCCCCCCCCCCO: the activity coefficient is 0.0581 ± 0.0035 (338.15 K, 101 kPa); 0.0543 ± 0.0033 (343.15 K, 101 kPa); 0.0506 ± 0.003 (348.15 K, 101 kPa); 0.0471 ± 0.0028 (353.15 K, 101 kPa).
Turning to `CCCCCC` [hexane] + CCCCCCCCCCCCCCCCCCO, the activity coefficient by setting is: (333.15 K, 101 kPa) 0.0551 ± 0.0033; (338.15 K, 101 kPa) 0.0468 ± 0.0028; (343.15 K, 101 kPa) 0.0411 ± 0.0025; (348.15 K, 101 kPa) 0.0359 ± 0.0022; (353.15 K, 101 kPa) 0.0315 ± 0.0019.
Turning to `CCCCl` [1-chloropropane] + CCCCCCCCCCCCCCCCCCCCO, the activity coefficient stood at 0.0779 ± 0.0047 (338.15 K, 101 kPa); 0.0778 ± 0.0047 (343.15 K, 101 kPa); 0.0778 ± 0.0047 (348.15 K, 101 kPa); 0.0777 ± 0.0047 (353.15 K, 101 kPa).
For the compound `C1CCOC1` [tetrahydrofuran] + CCCCCCCCCCCCCCCCCCO, the activity coefficient (333.15 K, 101 kPa) was found to be 0.0204 ± 0.0012; the activity coefficient (338.15 K, 101 kPa) is 0.0188 ± 0.0011; the activity coefficient (343.15 K, 101 kPa) was determined as 0.0177 ± 0.0011; the activity coefficient (348.15 K, 101 kPa) worked out at 0.0166 ± 0.001; the activity coefficient (353.15 K, 101 kPa) stood at 0.0156 ± 0.0009.
`CC#N` [acetonitrile] + CCCCCCCCCCCCCCCCCCO: the activity coefficient was 0.108 ± 0.0065 (333.15 K, 101 kPa); 0.0969 ± 0.0058 (338.15 K, 101 kPa); 0.0901 ± 0.0054 (343.15 K, 101 kPa); 0.0832 ± 0.005 (348.15 K, 101 kPa); 0.0766 ± 0.0046 (353.15 K, 101 kPa).
Turning to `CCCCCl` [1-chlorobutane] + CCCCCCCCCCCCCCCCCCO, the activity coefficient reads like this: (333.15 K, 101 kPa) 0.0389 ± 0.0023; (338.15 K, 101 kPa) 0.036 ± 0.0022; (343.15 K, 101 kPa) 0.0338 ± 0.002; (348.15 K, 101 kPa) 0.0321 ± 0.0019; (353.15 K, 101 kPa) 0.03 ± 0.0018.
As to `C=CCCC` [1-pentene] + CCCCCCCCCCCCCCCCCCO, the activity coefficient by setting is: (333.15 K, 101.3 kPa) 0.0261 ± 0.0016; (338.15 K, 101.3 kPa) 0.0245 ± 0.0015; (343.15 K, 101.3 kPa) 0.0234 ± 0.0014; (348.15 K, 101.3 kPa) 0.0222 ± 0.0013; (353.15 K, 101.3 kPa) 0.0213 ± 0.0013.
Take `CO` [methanol] + CCCCCCCCCCCCCCCCCCCCO: the activity coefficient is 0.122 ± 0.0073 (338.15 K, 101 kPa); 0.0967 ± 0.0058 (343.15 K, 101 kPa); 0.0737 ± 0.0044 (348.15 K, 101 kPa); 0.0574 ± 0.0034 (353.15 K, 101 kPa).
With `CCCCC` [pentane] + CCCCCCCCCCCCCCCCCCO, the activity coefficient stood at 0.0292 ± 0.0018 (333.15 K, 101 kPa); 0.0272 ± 0.0016 (338.15 K, 101 kPa); 0.0259 ± 0.0016 (343.15 K, 101 kPa); 0.0243 ± 0.0015 (348.15 K, 101 kPa); 0.0231 ± 0.0014 (353.15 K, 101 kPa).
With `CCOC(C)=O` [ethyl acetate] + CCCCCCCCCCCCCCCCCCO, the activity coefficient is, setting by setting: (333.15 K, 101.3 kPa) 0.0445 ± 0.0027; (338.15 K, 101.3 kPa) 0.0408 ± 0.0024; (343.15 K, 101.3 kPa) 0.0384 ± 0.0023; (348.15 K, 101.3 kPa) 0.036 ± 0.0022; (353.15 K, 101.3 kPa) 0.0335 ± 0.002.
`CCCCOC(C)=O` [butyl ethanoate] + CCCCCCCCCCCCCCCCCCCCO: the activity coefficient (338.15 K, 101 kPa) stood at 0.14 ± 0.0084; the activity coefficient (343.15 K, 101 kPa) was 0.131 ± 0.0079; the activity coefficient (348.15 K, 101 kPa) came to 0.123 ± 0.0074; the activity coefficient (353.15 K, 101 kPa) is 0.115 ± 0.0069.
Take `CCOCC` [diethyl ether] + CCCCCCCCCCCCCCCCCCO: the activity coefficient is 0.0257 ± 0.0015 (333.15 K, 101 kPa); 0.0235 ± 0.0014 (338.15 K, 101 kPa); 0.0219 ± 0.0013 (343.15 K, 101 kPa); 0.0204 ± 0.0012 (348.15 K, 101 kPa); 0.019 ± 0.001 (353.15 K, 101 kPa).
Turning to `CC(C)=O` [acetone] + CCCCCCCCCCCCCCCCCCCCO, the activity coefficient is 0.0557 ± 0.0033 (338.15 K, 101 kPa); 0.0572 ± 0.0034 (343.15 K, 101 kPa); 0.0587 ± 0.0035 (348.15 K, 101 kPa); 0.0602 ± 0.0036 (353.15 K, 101 kPa).
